“Also recorded” adds a separate entry of the source.
Experiments:
[1] = test system: male Sprague-Dawley rats; experiment: Von Frey; format: in vivo, rat; conditions: baseline dropped to about 20 after CFA
[2] = test system: CD1 mice; experiment: NAPQI detection in serum by LC-MS/MS; format: in vivo, mouse; conditions: 600 mg/kg, ip or po
[3] = test system: CD1 male mice; experiment: Liver histology and immunohistochemistry; format: in vivo, mouse; conditions: for H&E-stained liver sections / apoptotic nuclei (TUNEL) / hepatic tight junctions (ZO-1 staining): 600 mg/kg; for H&E-stained liver sections: CD1 mice
[4] = test system: CD1 male mice; experiment: In vivo liver function tests and serum creatinine; design: species or system mouse; conditions: 600 mg/kg; for liver function tests (ALT, AST, ALP) in serum: serum after 12 h
[5] = test system: primary human hepatocytes (PHH); experiment: Reduced glutathione; format: cell-based; conditions: 500 or 1000 μM, 3 h, 6 h, 12 h
[6] = test system: HepaRG; conditions: HepaRG, 50, 100, 1000 and 5000 μM, 6 h, 12 h, 24 h
[7] = test system: male CD1 mice; conditions: 600 mg/kg, n = 20 mice per group
[8] = test system: primary human hepatocytes (PHH); experiment: LDH release in primary human hepatocytes; conditions: 500 or 1000 μM, 3 h, 6 h, 12 h, in comparison to ApAP
[9] = molecular target: CYP3A4 (Homo sapiens, UniProt P08684); conditions: titration curves for 2D6 and 3A4; isozyme not given
[10] = molecular target: CYP2D6 (Homo sapiens, UniProt P10635); experiment: Vivid CYP450 screening assay, CYP2D6; format: biochemical
[11] = test system: male CD1 mice; experiment: Baker's yeast-induced hyperthermia; format: in vivo, mouse; conditions: 80 mg/kg po, n = 10, 2 h after drug (6-h time point)
[12] = cited from earlier work

Sequence of CYP2D6 (P10635 whole entry): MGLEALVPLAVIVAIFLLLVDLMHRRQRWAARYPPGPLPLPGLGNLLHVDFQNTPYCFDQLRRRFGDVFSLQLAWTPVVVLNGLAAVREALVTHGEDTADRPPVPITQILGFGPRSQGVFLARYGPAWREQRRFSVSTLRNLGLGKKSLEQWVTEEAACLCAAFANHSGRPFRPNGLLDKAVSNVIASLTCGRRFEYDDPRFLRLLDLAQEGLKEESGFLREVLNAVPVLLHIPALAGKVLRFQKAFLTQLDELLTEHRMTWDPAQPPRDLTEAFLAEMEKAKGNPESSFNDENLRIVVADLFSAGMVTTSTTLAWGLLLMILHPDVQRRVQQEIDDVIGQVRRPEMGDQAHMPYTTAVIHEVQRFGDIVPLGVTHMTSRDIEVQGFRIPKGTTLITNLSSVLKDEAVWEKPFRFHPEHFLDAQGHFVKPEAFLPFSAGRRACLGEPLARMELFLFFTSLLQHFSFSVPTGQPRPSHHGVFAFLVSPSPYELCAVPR
Sequence of CYP3A4 (P08684 whole entry): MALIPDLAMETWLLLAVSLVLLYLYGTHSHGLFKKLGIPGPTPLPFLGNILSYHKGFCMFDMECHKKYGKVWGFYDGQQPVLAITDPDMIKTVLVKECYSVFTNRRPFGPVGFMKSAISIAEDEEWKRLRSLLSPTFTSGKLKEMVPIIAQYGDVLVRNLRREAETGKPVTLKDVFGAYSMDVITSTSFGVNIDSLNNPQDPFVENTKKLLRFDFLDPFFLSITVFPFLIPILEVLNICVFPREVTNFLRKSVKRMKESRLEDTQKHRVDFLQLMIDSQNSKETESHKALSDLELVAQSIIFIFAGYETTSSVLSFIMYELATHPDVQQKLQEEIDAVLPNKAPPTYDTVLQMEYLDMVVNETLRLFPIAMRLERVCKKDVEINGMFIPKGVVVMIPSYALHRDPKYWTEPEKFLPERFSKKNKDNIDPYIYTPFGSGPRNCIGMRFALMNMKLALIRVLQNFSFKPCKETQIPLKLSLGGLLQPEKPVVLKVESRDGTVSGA

| Structure (SMILES) | latency for withdrawal of the CFA-injected left hind foot [1] | NAPQI generation in serum [2] | H&E-stained liver sections [3] | apoptotic nuclei (TUNEL) ([3]; mice) | hepatic tight junctions (ZO-1 staining) ([3]; mice) | liver function tests (ALT, AST, ALP) in serum [4] | amount of reduced GSH [5] | hepatotoxicity (LDH release, reduced GSH), dose and time-dependent effect [6] | mice alive after 48 h [7] [mice] | LDH release [8] | concentrations at which inhibition is noted [9] [nM] | inhibitory effects on CYP2D6 [10] | nitrotyrosine in liver (marker of mitochondrial free radical formation) ([3]; toxic dose, mice) | serum creatinine (renal function) [4] | antipyretic effect [11] | hepatotoxicity ([12]; compared with ApAP) | in vivo analgesic profile ([12]; compared with ApAP) | in vivo metabolism ([12]; into the main metabolite 2) | antipyresis ([12]; stated in abstract, no reference given) |
| --- | --- | --- | --- | --- | --- | --- | --- | --- | --- | --- | --- | --- | --- | --- | --- | --- | --- | --- | --- |
| CNC(=O)c1ccccc1S(=O)(=O)NCC(=O)Nc1ccc(O)cc1 [3b, 2-[[2-(4-Hydroxyanilino)-2-oxo-ethyl]sulfamoyl]-N-methylbenzamide] | increased | did not result in the formation of NAPQI | healthy liver architecture was maintained | but not in 3b and 3r | preserved | marked reduction in LFTs | consistently increased | lack of hepatotoxicity | 20 | consistently decreased | – | – | – | – | – | – | – | – | – |
| O=C(CNS(=O)(=O)c1ccccc1C(=O)NCCc1ccc(O)c(O)c1)Nc1ccc(O)cc1 [3r, N-[2-(3,4-dihydroxyphenil)ethyl]-2-[[2-(4-hydroxyanilino)-2-oxo-ethyl]sulfamoyl] benzamide] | increased | did not result in the formation of NAPQI | healthy liver architecture was maintained | but not in 3b and 3r | preserved | marked reduction in LFTs | consistently increased | lack of hepatotoxicity | 20 | consistently decreased | > 1000 | only marginal inhibitory effects | – | – | – | – | – | – | – |
| CC(=O)Nc1ccc(O)cc1 [ApAP, N-Acetyl-4-aminophenol, reference compound] | increased | detected NAPQI generation | centrilobular hepatic hemorrhagic necrosis | A large number of apoptotic nuclei | Loss of hepatic tight junctions | Increased levels; also recorded: significantly high | – | – | – | – | – | – | large amounts of nitrotyrosine | moderately elevated; also recorded: significantly high | effectively reduced fever | – | – | – | – |
| O=C(CN1C(=O)c2ccccc2S1(=O)=O)Nc1ccc(O)cc1 [compound 1, N-(4-hydroxyphenyl)-2-(1,1,3-trioxo-1,2-benzothiazol-2-yl)acetamide] | – | – | – | – | – | – | – | – | – | – | – | – | – | – | – | considerably decreased | maintained the in vivo analgesic profile of ApAP | quickly metabolized in vivo | not antipyretic |

Reference: publication PMC7324353 (European Journal of Medicinal Chemistry, 2020)
